Results reported in ChEMBL document CHEMBL4229418, “Design, synthesis and pharmacology of aortic-selective acyl-CoA: Cholesterol O-acyltransferase (ACAT/SOAT) inhibitors” (Bioorg Med Chem, 2018).
The source made the active and inactive calls. No cut-off for these calls is given here.

What was measured:
[1] = Inhibition of SOAT1 in arterial homogenates isolated from 1% cholesterol fed New Zealand white rabbit assessed as reduction in cholesteryl oleate formation incubated for 5 mins in presence of [14C]-oleoyl-CoA and BSA complex by TLC method; assay type: tissue-based, Oryctolagus cuniculus
[2] = Inhibition of SOAT2 in New Zealand white rabbit intestinal microsomes assessed as reduction in cholesteryl oleate formation incubated for 5 mins in presence of [14C]-oleoyl-CoA and BSA complex by TLC method; set-up: species or system Oryctolagus cuniculus, Intestine
[3] = Inhibition of rabbit intestinal ACAT2; set-up: species or system Oryctolagus cuniculus
Hamster [4] = assay: Antiatherosclerotic activity in Bio F1B hamster model of diet-induced atherosclerosis assessed as reduction in lipid accumulation areas in aortic arch at 10 mg/kg/day added to chow pellets by oil red O staining based assay relative to control; assay type: functional; settings: Cricetinae
[5] = AUC (0 to 8 hrs) in non-fasted Sprague-Dawley rat at 30 mg/kg, po by LC-MS/MS analysis; assay type: ADME, organism-based; set-up: dose 30 mg/kg, time < 8 hr, route oral; settings: in vivo
[6] = Tmax in non-fasted Sprague-Dawley rat at 30 mg/kg, po by LC-MS/MS analysis; assay type: ADME, organism-based; settings: in vivo
Hamster [7] = assay: Antiatherosclerotic activity in Bio F1B hamster model of diet-induced atherosclerosis assessed as reduction in lipid accumulation areas in aortic arch at 0.3 mg/kg/day added to chow pellets by oil red O staining based assay; assay type: functional, organism-based; settings: Cricetinae
[8] = biological target: T1, Sterol O-acyltransferase 1 (Mus musculus, UniProt Q61263); assay: Inhibition of ACAT1 in mouse IC21 cells in absence of BSA; assay type: cell-based
T1 sequence (Q61263 whole entry): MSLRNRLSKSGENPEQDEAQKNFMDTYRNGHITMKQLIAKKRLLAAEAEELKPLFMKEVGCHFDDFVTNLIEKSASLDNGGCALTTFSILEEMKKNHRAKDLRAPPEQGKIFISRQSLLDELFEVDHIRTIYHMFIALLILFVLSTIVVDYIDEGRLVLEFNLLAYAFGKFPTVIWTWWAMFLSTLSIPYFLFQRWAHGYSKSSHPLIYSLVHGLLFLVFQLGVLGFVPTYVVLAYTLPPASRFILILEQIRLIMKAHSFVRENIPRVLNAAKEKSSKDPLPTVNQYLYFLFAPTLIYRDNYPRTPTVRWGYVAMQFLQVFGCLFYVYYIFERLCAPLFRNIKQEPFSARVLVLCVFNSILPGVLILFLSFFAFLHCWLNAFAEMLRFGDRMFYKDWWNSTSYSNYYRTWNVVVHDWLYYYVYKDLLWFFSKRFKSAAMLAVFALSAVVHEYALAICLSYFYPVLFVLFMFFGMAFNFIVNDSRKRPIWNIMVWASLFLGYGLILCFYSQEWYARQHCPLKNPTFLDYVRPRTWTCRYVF

[9] = biological target: T1, Sterol O-acyltransferase 1; assay: Inhibition of ACAT1 in mouse IC21 cells in presence of BSA; assay type: cell-based
[10] = biological target: T1, Sterol O-acyltransferase 1; assay: Inhibition of ACAT1 in mouse J774 cells assessed as reduction in esterified cholesterol accumulation after 18 hrs in presence of 25-hydroxycholesterol; assay type: cell-based
Hamster [11] = assay: Antiatherosclerotic activity in Bio F1B hamster model of diet-induced atherosclerosis assessed as reduction in lipid accumulation areas in aortic arch at 3 mg/kg/day added to chow pellets by oil red O staining based assay relative to control; assay type: functional; settings: Cricetinae
[12] = biological target: T2, Sterol O-acyltransferase 1 (Homo sapiens, UniProt P35610); assay: Inhibition of ACAT1 in human monocytes-derived macrophages reduction in cholesteryl oleate formation preincubated for 2 hrs followed by [14C]-oleic acid/BSA/sodium oleate addition measured after 2 hrs by TLC assay
T2 sequence (P35610 whole entry): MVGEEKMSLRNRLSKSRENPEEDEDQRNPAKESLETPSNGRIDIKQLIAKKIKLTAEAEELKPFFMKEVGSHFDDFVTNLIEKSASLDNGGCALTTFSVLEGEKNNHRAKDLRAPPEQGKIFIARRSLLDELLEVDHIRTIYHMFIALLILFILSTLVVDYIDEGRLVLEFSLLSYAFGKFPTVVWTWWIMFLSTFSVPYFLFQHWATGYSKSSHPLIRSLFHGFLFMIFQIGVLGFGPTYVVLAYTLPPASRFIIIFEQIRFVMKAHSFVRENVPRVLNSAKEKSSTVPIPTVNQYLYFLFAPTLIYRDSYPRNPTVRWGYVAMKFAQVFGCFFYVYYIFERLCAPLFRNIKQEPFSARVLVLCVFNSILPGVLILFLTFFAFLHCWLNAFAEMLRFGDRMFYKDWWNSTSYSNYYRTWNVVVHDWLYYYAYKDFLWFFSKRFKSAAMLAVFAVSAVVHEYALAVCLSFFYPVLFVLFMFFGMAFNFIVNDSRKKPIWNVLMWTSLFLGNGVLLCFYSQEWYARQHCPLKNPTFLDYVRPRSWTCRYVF

[13] = biological target: T3, Sterol O-acyltransferase 1 (Rattus norvegicus, UniProt O70536); assay: Inhibition of ACAT1 in 0.2 mg/ml rat liver microsomes
T3 sequence (O70536 whole entry): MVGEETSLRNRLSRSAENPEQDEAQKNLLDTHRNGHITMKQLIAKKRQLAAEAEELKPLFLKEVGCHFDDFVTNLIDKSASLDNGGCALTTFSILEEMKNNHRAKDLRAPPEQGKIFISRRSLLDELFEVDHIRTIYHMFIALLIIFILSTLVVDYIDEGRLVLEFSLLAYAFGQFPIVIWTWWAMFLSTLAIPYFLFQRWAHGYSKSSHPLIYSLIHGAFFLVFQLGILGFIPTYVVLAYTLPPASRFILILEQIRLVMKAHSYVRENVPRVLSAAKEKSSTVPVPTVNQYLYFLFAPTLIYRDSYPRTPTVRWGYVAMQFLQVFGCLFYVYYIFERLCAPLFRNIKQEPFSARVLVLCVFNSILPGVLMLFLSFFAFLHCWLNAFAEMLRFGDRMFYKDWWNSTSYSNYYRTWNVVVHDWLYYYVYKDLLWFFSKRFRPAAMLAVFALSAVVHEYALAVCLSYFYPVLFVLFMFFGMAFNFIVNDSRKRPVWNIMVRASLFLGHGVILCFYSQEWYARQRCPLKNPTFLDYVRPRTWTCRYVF

[14] = biological target: T3, Sterol O-acyltransferase 1; assay: Inhibition of ACAT1 in 1 mg/ml rat liver microsomes
[15] = Cmax in non-fasted Sprague-Dawley rat at 30 mg/kg, po by LC-MS/MS analysis; assay type: ADME, organism-based; set-up: dose 30 mg/kg, route oral; settings: in vivo
Hamster [16] = assay: Toxicity in Bio F1B hamster model of diet-induced atherosclerosis assessed as reduction in total plasma cholesterol at 1 mg/kg/day added to chow pellets relative to control; assay type: organism-based; set-up: scale not given: the % may be the effect or the level left; settings: cricetinae, in vivo
Hamster [17] = assay: Toxicity in Bio F1B hamster model of diet-induced atherosclerosis assessed as reduction in total plasma cholesterol at 3 mg/kg/day added to chow pellets relative to control; assay type: organism-based; set-up: scale not given: the % may be the effect or the level left; settings: cricetinae, in vivo
[18] = biological target: T2, Sterol O-acyltransferase 1; assay: Inhibition of ACAT1 in human monocytes-derived macrophages reduction in cholesteryl oleate formation preincubated for 2 hrs followed by [14C]-oleic acid/sodium oleate addition measured after 2 hrs in absence of albumin by TLC assay
Hamster [19] = assay: Toxicity in Bio F1B hamster model of diet-induced atherosclerosis assessed as reduction in total plasma cholesterol at 10 mg/kg/day added to chow pellets relative to control; assay type: organism-based; set-up: scale not given: the % may be the effect or the level left; settings: cricetinae, in vivo
Hamster [20] = assay: Antiatherosclerotic activity in Bio F1B hamster model of diet-induced atherosclerosis assessed as reduction in lipid accumulation areas in aortic arch at 1 mg/kg/day added to chow pellets by oil red O staining based assay relative to control; assay type: functional; settings: Cricetinae
Oryctolagus cuniculus = species on record: Oryctolagus cuniculus; assay: Selectivity ratio of IC50 for inhibition of SOAT2 in New Zealand white rabbit intestinal microsomes to IC50 for inhibition of SOAT1 in arterial homogenates isolated from 1% cholesterol fed New Zealand white rabbit
[21] = Drug metabolism in New Zealand white rabbit intestinal microsomes assessed as -((6-((2,6-Diisopropylphenyl)amino)-6-oxohexyl)thio)benzo-[d]oxazole-7-carboxylic acid formation after 30 mins; assay type: ADME, Oryctolagus cuniculus, Intestine, microsome; settings: 0.5 h
[22] = Drug metabolism in New Zealand white rabbit intestinal microsomes assessed as 2-((6-((2,6-Diisopropylphenyl)amino)-6-oxohexyl)thio)-benzo[d]oxazole-4-carboxylic acid formation after 30 mins; assay type: ADME, Oryctolagus cuniculus, Intestine, microsome; settings: 0.5 h

CCCCCCCCCCC(C)(C)C(=O)Nc1c(OC)cc(OC)cc1OC [CL-976]
IC50 [1]: 0.19 µM
IC50 [2]: 0.03 µM
IC50 [3]: 0.073 µM

CC(C)c1cc(C(C)C)c(CC(=O)NS(=O)(=O)Oc2c(C(C)C)cccc2C(C)C)c(C(C)C)c1 [AVASIMIBE]
inhibition in vivo at 10 mg/kg/day (Hamster [4]): 0%
AUC(0-t) at 8 h [5]: 48.1 µg·h/mL
IC50 [1]: 31 µM
Tmax [6]: 3.3 h
IC50 [2]: 13 µM
inhibition (Hamster [7]): Active
IC50 [8]: 0.06 µM
IC50 [9]: 0.76 µM
IC50 [10]: 0.59 µM
inhibition in vivo at 3 mg/kg/day (Hamster [11]): 14%
IC50 [12]: 4.1 µM
IC50 [13]: 0.7 µM
IC50 [14]: 12 µM
Cmax [15]: 4.58 µg/mL
Activity (Hamster [16]): 55%
Activity (Hamster [17]): 25%
IC50 [18]: 0.025 µM
Activity (Hamster [19]): 10%
inhibition in vivo at 1 mg/kg/day (Hamster [20]): 33%
Ratio IC50 (Oryctolagus cuniculus): 0.4

COC(=O)c1cccc2oc(SCCCCCC(=O)Nc3c(C(C)C)cccc3C(C)C)nc12
IC50 [1]: 0.026 µM
Drug metabolism [21]: Metabolite_Detected
IC50 [2]: 0.81 µM
IC50 [10]: 0.9 µM
Drug metabolism [22]: Metabolite_Detected
Ratio IC50 (Oryctolagus cuniculus): 31.2
